Test results: patent US5242934A, “Method for treatment of neurodegenerative diseases” (R. J. Reynolds Tobacco Company, priority 1992, dated 1993)

Assays:
[1] = target: high affinity nicotinic receptors; assay: Inhibition of L-[3H]nicotine binding to mouse brain membrane preparations; design: species or system Mice (DBA strain); conditions: mouse brain membranes, 2 hr incubation at 4° C., 10 nM L-[3H]nicotine, Ki calculated from IC50 by method of Cheng et al.
Procedure: Mice (DBA strain) were maintained on a 12 hour light/dark cycle and were allowed free access to water and food supplied by Wayne Lab Blox, Madison, Wis. Animals used in the present studies were 60 to 90 days of age and weighed 20 to 25 g. Brain membrane preparations were obtained from pooled brain tissue of both males and females.
Mice were killed by cervical dislocation. Brains were removed and placed on an ice-cold platform. […] Protein was determined by the method of Lowry, et al., J. Biol. Chem., Vol. 193, pp. 265-275 (1951), using bovine serum albumin as the standard.
The binding of L-[^3 H]nicotine was measured using a modification of the method of Romano, et al., Science, Vol. 210, pp. 647-650 (1980) as described previously by Marks, et al., Mol. Pharmacol., Vol. 30, pp. 427-436 (1986). The binding of L-[^3 H]nicotine was measured using a 2 hr. incubation at 4° C. […] Nonspecific binding was determined by inclusion of 10 μM nonradioactive nicotine in the incubations. The inhibition of L-[^3 H]nicotine binding by test compounds was determined by including one of eight different concentrations of the test compound in the incubation. […] Inhibition constants (Ki values) were calculated from the IC50 values using the method of Cheng, et al., Biochem. Pharmacol., Vol. 22, pp. 3099-3108 (1973). […]

[2] = tested on: synaptosomes from the striatal area of rat brain; assay: [3H]-dopamine release from rat striatal synaptosomes; format: biochemical, Sprague-Dawley rats; conditions: 0.2 ml of a 20 μM solution of ligand, relative to equal concentration of S(-) nicotine
Procedure: Dopamine release was measured by preparing synaptosomes from the striatal area of rat brain obtained from Sprague-Dawley rats generally according to the procedures set forth by Nagy, et al., J. Neurochem., Vol. 43, pp. 1114-1123 (1984). Striata from 4 rats were homogenized in 2 ml of 0.32M sucrose buffered with 5 mM HEPES (pH 7.5), using a glass-teflon tissue grinder. The homogenate was diluted to 5 ml with additional homogenization solution and centrifuged at 1000×g for 10 min. This procedure was repeated on the new pellet and the resulting supernatant was centrifuged at 12,000×g for 20 min. […] Using this method, 30 to 90 percent of the dopamine was taken up into the synaptosomes, as determined by scintillation counting following filtration through glass fiber filters soaked with 0.5 percent polyethyleneimine. […] After the addition of a 0.2 ml of a 20 μM solution of ligand, the perfusate was collected into scintillation vials at 1 min. intervals and the dopamine released was quantified by scintillation counting. Peaks of radioactivity released above background were summed and the average basal release during that time was subtracted from the total. Release was expressed as a percentage of release obtained with an equal concentration of S(-) nicotine.

SMILES: CN1CCCC1c1ccncc1 (centres unmarked) [gamma-nicotine]
- Ki [1]: 1100 ± 100 nM
- Dopamine Release (Percent release relative to S(-) nicotine) [2]: 45%
